Converted amounts (≈) assume the structure as drawn. “And” between values parts separate entries of the source, which are not always exact repeats. Equal entries are not always repeated.
Key:
bovine tubulin = bovine tubulin (Bos taurus, UniProt P81947+Q6B856); assay: Inhibition of tubulin polymerization; assay type: biochemical; conditions: summary of Table 3
Protocol: Substances 1, 4, 9, 11, 12, 13 and 15 were tested for their ability to inhibit the polymerization of bovine tubulin in an in-vitro test (D. M. Bollag et al. Cancer Res. 1995, 55, 2325–2333). This test uses-tubulin which has been purified by cycles of polymerization and depolymerization and which is caused to polymerize by adding GTP and heating it. Table 3 gives the EC50 values causing inhibition of the polymerization of tubulin containing 30% associated proteins (MPAs).

U-937 cell line = assay: CDDplus nucleosome ELISA test (apoptosis); assay type: cell-based; conditions: U-937, 1 nM–10 μM, 24 h of treatment
Protocol: Nuclear fragmentation is a late consequence of apoptotic processes. The changes which can be observed in this connection can be attributed to DNA strands being cleaved by endonucleases and the fragmentation into nucleosome particles which results therefrom.
For this, the effects of compounds 1 and 2 on the U-937 cell line were investigated at different concentrations (1 nM–10 μM; 24 h of treatment). (See FIG. 5 and FIG. 6).

[1] = Saturation solubility in water; assay type: physicochemical; conditions: thermodynamic from solid, maximum of 1% DMSO, HPLC-UV
Protocol: A maximum of 1% DMSO was added for the purpose of solubilizing the substances and improving the wetting of the samples. An HPLC-UV method was used for checking the content.

[2] = biological target: human DNA topoisomerase II (Homo sapiens, UniProt P11388); assay: kDNA assay for testing topoisomerase II activity; assay type: biochemical; conditions: compound 1 at 100, 31.6 and 10 μM; reference compounds 100 μM
human DNA topoisomerase II, sequence (P11388 whole entry): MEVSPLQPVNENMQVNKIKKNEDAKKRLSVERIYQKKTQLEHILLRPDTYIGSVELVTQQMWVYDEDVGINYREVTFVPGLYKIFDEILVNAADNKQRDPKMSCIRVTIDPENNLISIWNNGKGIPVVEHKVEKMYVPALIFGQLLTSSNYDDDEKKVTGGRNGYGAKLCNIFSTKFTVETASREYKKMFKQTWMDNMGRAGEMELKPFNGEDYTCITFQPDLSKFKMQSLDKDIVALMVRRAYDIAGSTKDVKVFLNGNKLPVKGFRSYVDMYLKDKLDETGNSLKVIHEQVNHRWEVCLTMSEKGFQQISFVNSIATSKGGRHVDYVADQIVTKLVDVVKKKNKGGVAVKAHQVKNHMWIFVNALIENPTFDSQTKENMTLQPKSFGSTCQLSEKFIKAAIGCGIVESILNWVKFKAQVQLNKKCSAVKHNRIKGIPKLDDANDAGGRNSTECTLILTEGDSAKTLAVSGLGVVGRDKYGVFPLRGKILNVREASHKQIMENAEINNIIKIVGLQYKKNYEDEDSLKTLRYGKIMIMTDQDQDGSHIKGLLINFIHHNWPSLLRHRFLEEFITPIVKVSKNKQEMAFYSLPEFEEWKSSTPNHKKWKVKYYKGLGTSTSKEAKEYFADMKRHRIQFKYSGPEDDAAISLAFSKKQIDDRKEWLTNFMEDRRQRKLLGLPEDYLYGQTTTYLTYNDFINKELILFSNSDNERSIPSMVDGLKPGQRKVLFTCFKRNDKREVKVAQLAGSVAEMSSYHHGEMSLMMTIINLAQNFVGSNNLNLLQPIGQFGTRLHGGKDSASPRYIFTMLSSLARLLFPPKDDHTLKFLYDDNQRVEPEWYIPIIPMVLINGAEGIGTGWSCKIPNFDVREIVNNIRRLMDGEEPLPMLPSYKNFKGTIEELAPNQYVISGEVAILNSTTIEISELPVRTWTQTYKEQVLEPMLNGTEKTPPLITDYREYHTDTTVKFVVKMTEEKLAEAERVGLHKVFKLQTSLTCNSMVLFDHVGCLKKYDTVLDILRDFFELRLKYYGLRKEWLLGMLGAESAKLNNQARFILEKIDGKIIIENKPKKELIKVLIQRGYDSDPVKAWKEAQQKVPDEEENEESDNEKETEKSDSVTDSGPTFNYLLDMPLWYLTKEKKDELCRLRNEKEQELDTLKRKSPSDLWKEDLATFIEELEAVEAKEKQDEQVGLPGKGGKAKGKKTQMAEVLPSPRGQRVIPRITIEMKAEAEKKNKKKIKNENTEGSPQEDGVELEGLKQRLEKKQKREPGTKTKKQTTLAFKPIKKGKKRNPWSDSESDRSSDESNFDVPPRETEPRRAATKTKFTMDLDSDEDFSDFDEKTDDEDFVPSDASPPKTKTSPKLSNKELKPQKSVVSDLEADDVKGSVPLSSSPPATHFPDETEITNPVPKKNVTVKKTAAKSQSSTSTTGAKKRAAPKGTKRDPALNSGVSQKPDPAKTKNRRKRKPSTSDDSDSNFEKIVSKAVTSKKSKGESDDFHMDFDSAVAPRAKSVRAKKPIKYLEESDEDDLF
Protocol: In this assay, which was described by P. Arimondo (Anti-Cancer Drug Design 2000, 15(6), 413–421), kDNA is treated with human DNA topoisomerase II in the absence or presence of the test compounds. In the assay, compound 1 according to the invention was tested at three different concentrations (100, 31.6 and 10 μM). A positive control and the reference compounds m-amsacrine (m-amsa), paclitaxel (Taxol) and vincristine, with the concentration in each case being 100 μM, were used for comparison.
2 μL of 10× assay buffer, 1 μL of kDNA (200 ng), 0.5 μL of human topoisomerase II (1 unit) and 15.5 μL of H2O are added by pipette to 1 μL of initially introduced test substance (20 times concentrated in 100% DMSO) and the reagents are mixed.
The reaction assay samples are placed in a heating block which has been preheated to 37° C. and incubated at 37° C. for 10 min. The incubation is stopped after adding 4 μL of 5× Stop buffer and the substance is subsequently extracted with CIA. After that, 20 μL of the supernatant are loaded onto a 1% agarose gel containing 0.25 μg of ethidium bromide/mL and separated at 100 V for 1 h. Finally, the gel is photographed under UV excitation (see FIG. 1). The inhibition of the decatenation of kDNA is quantified using the GelPro® Analyzer Software (see FIG. 2).

human topoisomerase II = human topoisomerase II (Homo sapiens, UniProt P11388); assay: pRYG relaxation assay for testing topoisomerase II activity; assay type: biochemical; conditions: compound 1 at 100, 31.6 and 10 μM; reference compounds 316 and 100 μM
human topoisomerase II, sequence (P11388 whole entry): as above
Protocol: In the assay, the compound 1 according to the invention was tested at three different concentrations (100, 31.6 and 10 μM). The reference compounds m-amsacrine, paclitaxel (Taxol) and vincristine were used, at concentrations of 316 and 100 μM, for comparison.
2 μL of 10× assay buffer, 0.5 μL of pRYG DNA (125 ng), 0.5 μL of human topoisomerase II (1 unit) and 16 μL of H2O are added by pipette to 1 μL of initially introduced test substance (20 times concentrated in 100% DMSO) and the reagents are mixed. The reaction assay samples are placed in a heating block which has been preheated to 37° C. and incubated at 37° C. for 30 min. The incubation is stopped after adding 4 μL of 5× Stop buffer. After that, 10 μL of the assay sample are loaded onto a 1.2% agarose gel containing 0.25 μg of ethidium bromide/mL and separated at 100 V for 2.5 h. Finally, the gel is photographed under UV excitation (see FIG. 3). The inhibition of pRYG relaxation is quantified using the GelPro® Analyzer Software (see FIG. 4).

mammary gland, MAXF857 = assay: Human xenograft model, mammary gland MAXF857; assay type: in vivo
Text: The in-vivo activity and tolerability of compound 2 according to the invention, as compared with those of substance 10, were examined in another human xenograft model (mammary gland, MAXF857).

melanoma, MEXF-462 = assay: Human xenograft model, melanoma MEXF-462; assay type: in vivo; conditions: for tolerability (in words): MEXF462 xenograft, p.o.
Text: The in-vivo activity and tolerability of compound 2 according to the invention, as compared with those of substances 10 and 14, were examined in a human xenograft model (melanoma, MEXF-462).

[3] = tested on: doxorubicin-resistant P388; assay: XTT proliferation assay, P388ADR; assay type: cell-based, murine; conditions: Mus musculus
Text: (§1) For further characterization, substances 1, 2, 4 and 11 were investigated with regard to their effect on mulitdrug-resistance cell lines as compared with that on nonresistant wild-type cell lines.
(§2) The cell lines which were investigated are the murine cell line L1210, the acute myeloid leukemia cell line LT12 and the resistant lines L1210/mdr and LT12/mdr. The murine cell line P388 (methylcholanthrene-induced lymphoid neoplasm) and doxorubicin-resistant P388 were also included as test systems.
(§3) The test results are summarized in Table 2 below: • XTT proliferation assay, EC50 in μg/ml

murine cell line P388 = assay: XTT proliferation assay, P388; assay type: cell-based; conditions: Mus musculus
Text: as §1, §2, §3

murine cell line L1210 = assay: XTT proliferation assay, L1210; assay type: cell-based; conditions: Mus musculus
Text: as §1, §2, §3

[4] = tested on: resistant line L1210/mdr (L1210VCR); assay: XTT proliferation assay, L1210VCR; assay type: cell-based, murine; conditions: Mus musculus
Text: as §1, §2, §3

[5] = tested on: acute myeloid leukemia cell line LT12; assay: XTT proliferation assay, LT12; assay type: cell-based; conditions: Rattus norvegicus
Text: as §1, §2, §3

resistant line LT12/mdr = assay: XTT proliferation assay, LT12/mdr; assay type: cell-based; conditions: Rattus norvegicus, LT12mdr
Text: as §1, §2, §3

bovine tubulin, sequence (P81947 whole entry): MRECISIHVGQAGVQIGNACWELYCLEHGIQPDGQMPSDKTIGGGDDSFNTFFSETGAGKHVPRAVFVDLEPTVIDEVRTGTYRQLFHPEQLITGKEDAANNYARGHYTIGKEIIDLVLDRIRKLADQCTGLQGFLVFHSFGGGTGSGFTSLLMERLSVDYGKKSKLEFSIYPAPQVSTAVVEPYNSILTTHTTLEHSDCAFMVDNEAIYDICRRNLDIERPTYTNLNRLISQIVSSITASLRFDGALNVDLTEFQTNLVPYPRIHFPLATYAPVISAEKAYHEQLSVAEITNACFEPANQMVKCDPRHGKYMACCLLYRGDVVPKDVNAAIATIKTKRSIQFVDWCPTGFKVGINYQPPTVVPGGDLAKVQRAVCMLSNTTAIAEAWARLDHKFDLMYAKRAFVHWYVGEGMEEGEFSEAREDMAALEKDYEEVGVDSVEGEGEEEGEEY
bovine tubulin, sequence (Q6B856 whole entry): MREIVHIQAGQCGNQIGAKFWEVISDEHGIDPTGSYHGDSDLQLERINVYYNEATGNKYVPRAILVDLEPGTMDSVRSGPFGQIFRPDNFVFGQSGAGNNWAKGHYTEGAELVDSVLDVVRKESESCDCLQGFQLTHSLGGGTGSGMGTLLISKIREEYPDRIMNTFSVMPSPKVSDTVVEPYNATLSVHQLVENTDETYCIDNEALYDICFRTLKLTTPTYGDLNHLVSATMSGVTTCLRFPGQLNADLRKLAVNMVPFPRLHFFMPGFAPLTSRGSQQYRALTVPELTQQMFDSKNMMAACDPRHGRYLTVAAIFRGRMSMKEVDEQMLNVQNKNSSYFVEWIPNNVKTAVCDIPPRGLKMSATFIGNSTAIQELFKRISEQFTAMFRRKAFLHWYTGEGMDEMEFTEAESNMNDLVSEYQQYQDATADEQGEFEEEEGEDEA

O=C(Nc1cnc2nccnc2c1)C(=O)c1cn(Cc2ccc(Cl)cc2)c2ccccc12 [Compound 1, 2-[1-(4-chlorobenzyl)-1H-indol-3-yl]-2-oxo-N-pyrido[2,3-b]pyrazin-7-ylacetamide]
inhibitory effect on tubulin polymerization (in words) (bovine tubulin): very potent inhibitory effect | nucleosomes in the cell culture supernatant (U-937 cell line): not possible to demonstrate any significant increase | nucleosomes in the cell lysate (U-937 cell line): concentration-dependent increase of nucleosomes in the cell lysate | solubility [1]: 25 µg/mL (≈ 56.6 µM) | inhibition of topoisomerase II, kDNA decatenation [2]: significantly inhibit topoisomerase II | inhibition of topoisomerase II, pRYG DNA relaxation (human topoisomerase II): significantly inhibit topoisomerase II

CC(=O)N(C(=O)C(=O)c1cn(Cc2ccc(Cl)cc2)c2ccccc12)c1ccc2ncccc2c1 [Compound 2, N-{2-[1-(4-chlorobenzyl)-1H-indol-3-yl]-2-oxoacetyl}-N-quinolin-6-ylacetamide]
nucleosomes in the cell culture supernatant (U-937 cell line): not possible to demonstrate any significant increase | nucleosomes in the cell lysate (U-937 cell line): concentration-dependent increase of nucleosomes in the cell lysate | solubility [1]: 28.5 µg/mL (≈ 59.1 µM) | Deaths n (dead animals / total number) (mammary gland, MAXF857; MAXF857, 80 mg/kg p.o.): 0/6 mice | Optimum T/C % (day) (mammary gland, MAXF857; MAXF857, 80 mg/kg p.o., day 10): 9.6% (10) | Deaths n (dead animals / total number) (melanoma, MEXF-462; MEXF462, 80 mg/kg p.o.): 0/6 mice | remission of the tumors (melanoma, MEXF-462; MEXF462, 80 mg/kg p.o., 6 animals): complete remission of the tumors in the treated animals | Optimum T/C % (day) (melanoma, MEXF-462; MEXF462, 80 mg/kg p.o., day 18): 0.0% (18) | tolerability (in words) (melanoma, MEXF-462): very well tolerated (no deaths)

O=C(Nc1ccc2[nH]ncc2c1)C(=O)c1cn(Cc2ccc(Cl)cc2)c2ccccc12 [Compound 4, 2-[1-(4-chlorobenzyl)-1H-indol-3-yl]-N-(1H-indazol-5-yl)-2-oxoacetamide]
inhibitory effect on tubulin polymerization (in words) (bovine tubulin): very potent inhibitory effect | melting point: 203 °C

Cc1ccc2cc(NC(=O)C(=O)c3cn(Cc4ccc(Cl)cc4)c4ccccc34)ccc2n1 [Compound 9, 2-[1-(4-chlorobenzyl)-1H-indol-3-yl]-N-(2-methylquinolin-6-yl)-2-oxoacetamide]
inhibitory effect on tubulin polymerization (in words) (bovine tubulin): very potent inhibitory effect

O=C(Nc1ccc2ncccc2c1)C(=O)c1cn(Cc2ccc(Cl)cc2)c2ccccc12 [Compound 10, 2-[1-(4-chlorobenzyl)-1H-indol-3-yl]-2-oxo-N-quinolin-6-ylacetamide]
solubility [1]: 0.038 µg/mL (≈ 0.0864 µM) | Deaths n (dead animals / total number) (mammary gland, MAXF857; MAXF857, 40 mg/kg p.o.): 2/6 and 2/6 mice | tolerability (in words) (mammary gland, MAXF857; MAXF857 xenograft, p.o.): substantially less well tolerated than 2 | Deaths n (dead animals / total number) (melanoma, MEXF-462; MEXF462, 55 mg/kg p.o.): 2/6 mice | Deaths n (dead animals / total number) (melanoma, MEXF-462; MEXF462, 70 mg/kg p.o.): 5/6 mice | tolerability (in words) (melanoma, MEXF-462): less well tolerated

O=C(Nc1cccc2cccnc12)C(=O)c1cn(Cc2ccc(Cl)cc2)c2ccccc12 [Compound 12, 2-[1-(4-chlorobenzyl)-1H-indol-3-yl]-2-oxo-N-quinolin-8-ylacetamide]
inhibitory effect on tubulin polymerization (in words) (bovine tubulin): do not exert any effect | melting point: 178 °C

O=C(Nc1ccncc1)C(=O)c1cn(Cc2ccc(Cl)cc2)c2ccccc12 [Compound 14, 2-[1-(4-chlorobenzyl)-1H-indol-3-yl]-2-oxo-N-pyridin-4-ylacetamide]
solubility [1]: 0.35 µg/mL (≈ 0.898 µM) | Deaths n (dead animals / total number) (melanoma, MEXF-462; MEXF462, 16 mg/kg p.o.): 3/5 mice | Deaths n (dead animals / total number) (melanoma, MEXF-462; MEXF462, 32 mg/kg p.o.): 3/5 mice | tolerability (in words) (melanoma, MEXF-462): less well tolerated

Cc1ccc2cccc(NC(=O)C(=O)c3cn(Cc4ccc(F)cc4)c4ccccc34)c2n1 [Compound 15, 2-[1-(4-fluorobenzyl)-1H-indol-3-yl]-N-(2-methylquinolin-8-yl)-2-oxoacetamide]
inhibitory effect on tubulin polymerization (in words) (bovine tubulin): do not exert any effect | melting point: 200 to 202 °C

COc1cccc2c1C(=O)c1c(O)c3c(c(O)c1C2=O)C[C@@](O)(C(=O)CO)C[C@@H]3O[C@H]1C[C@H](N)[C@H](O)[C@H](C)O1 [Doxorubicin, doxorubicin]
EC50 [3]: > 3.16 µg/mL | EC50 (murine cell line P388): 0.204 µg/mL (≈ 0.375 µM) | EC50 (murine cell line L1210): 0.269 µg/mL (≈ 0.495 µM) | EC50 [4]: > 3.16 µg/mL | EC50 [5]: 0.029 µg/mL (≈ 0.0534 µM) | EC50 (resistant line LT12/mdr): > 3.16 µg/mL

COc1cc([C@@H]2c3cc4c(cc3[C@@H](O[C@@H]3O[C@@H]5CO[C@@H](C)O[C@H]5[C@H](O)[C@H]3O)[C@H]3COC(=O)[C@H]23)OCO4)cc(OC)c1O [Etoposide, etoposide]
EC50 [3]: > 3.16 µg/mL | EC50 (murine cell line P388): 0.202 µg/mL (≈ 0.343 µM) | EC50 (murine cell line L1210): 0.269 µg/mL (≈ 0.457 µM) | EC50 [4]: > 3.16 µg/mL | EC50 [5]: 0.094 µg/mL (≈ 0.16 µM) | EC50 (resistant line LT12/mdr): > 3.6 µg/mL

CC[C@]1(O)C[C@H]2CN(CCc3c([nH]c4ccccc34)[C@@](C(=O)OC)(c3cc4c(cc3OC)N(C=O)[C@H]3[C@@](O)(C(=O)OC)[C@H](OC(C)=O)[C@]5(CC)C=CCN6CC[C@]43[C@@H]65)C2)C1 [Vincristine, vincristine]
EC50 [3]: 0.93 µg/mL (≈ 1.13 µM) | EC50 (murine cell line P388): 0.004 µg/mL (≈ 0.00485 µM) | EC50 (murine cell line L1210): 0.015 µg/mL (≈ 0.0182 µM) | EC50 [4]: > 3.16 µg/mL | EC50 [5]: 0.002 µg/mL (≈ 0.00242 µM) | EC50 (resistant line LT12/mdr): 0.134 µg/mL (≈ 0.162 µM) | inhibition of topoisomerase II, kDNA decatenation [2]: neither paclitaxel nor vincristine was observed to have any inhibitory effects | inhibition of topoisomerase II, pRYG DNA relaxation (human topoisomerase II): neither paclitaxel nor vincristine was observed to have any inhibitory effects

From patent US7205299B2, “Indole derivatives having an apoptosis-inducing effect” (Zentaris GmbH, priority 2003, dated 2007)
